For orientation: IC50 means the midpoint of a concentration-inhibition curve. A higher IC50 goes with weaker potency in that assay.

In patent US20250145598A1, “ACID CERAMIDASE INHIBITORS AND USES THEREOF” (The Regents of the University of California, priority 2021, published 2025) one finds IC50 data, which are given here for 30 compounds.

Some results are limits rather than exact numbers.

The target in this test is T1, Acid ceramidase (Homo sapiens, UniProt Q13510).
T1 sequence (Q13510 22-395): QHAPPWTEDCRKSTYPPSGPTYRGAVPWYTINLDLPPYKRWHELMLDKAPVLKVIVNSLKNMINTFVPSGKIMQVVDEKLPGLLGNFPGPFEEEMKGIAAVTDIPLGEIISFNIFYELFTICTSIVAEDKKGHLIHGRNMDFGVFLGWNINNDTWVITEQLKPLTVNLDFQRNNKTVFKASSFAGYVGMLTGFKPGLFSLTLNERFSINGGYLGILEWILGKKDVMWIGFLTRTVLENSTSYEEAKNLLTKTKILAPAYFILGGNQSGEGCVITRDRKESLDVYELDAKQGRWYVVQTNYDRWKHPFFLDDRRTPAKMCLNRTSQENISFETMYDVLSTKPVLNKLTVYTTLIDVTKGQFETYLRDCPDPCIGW
Briefly: Acid ceramidase assay (AC in vitro IC50). Format: biochemical. As to conditions: Acid ceramidase assay data of example compounds.
`CS(=O)(=O)c1ccc(COc2ccc(-c3cn(C(=O)NCC4CC(=O)N(c5ccccc5)C4)cn3)cc2)cc1` (stereo not drawn) [AC2020601-0443, 4-(4-((4-(methylsulfonyl)benzyl)oxy)phenyl)-N-((5-oxo-1-phenylpyrrolidin-3-yl)methyl)-1H-imidazole-1-carboxamide]: the IC50 is under 300 nM.
In the case of `CS(=O)(=O)c1ccc(COc2ccc(-c3cn(C(=O)NCC4CCN(c5ccccc5)C4)cn3)cc2)cn1` (stereo not drawn) [AC2020601-0444, 4-(4-((6-(methylsulfonyl)pyridin-3-yl)methoxy)phenyl)-N-((1-phenylpyrrolidin-3-yl)methyl)-1H-imidazole-1-carboxamide], the IC50 is under 300 nM.
Compound `CS(=O)(=O)c1ccc(C(=O)Oc2ccc(-c3cn(C(=O)NCC4CCN(c5ccccc5)C4)cn3)cc2)cc1` (stereo not drawn) [AC2020601-0501, 4-(1-((1-phenylpyrrolidin-3-yl)methylcarbamoyl)-1H-imidazol-4-yl)phenyl 4-(methylsulfonyl)benzoate] gave an IC50 of under 300 nM.
`O=C(Nc1ccc(COc2ccc(-c3cn(C(=O)NCC4CCN(c5ccccc5)C4)cn3)cc2)cc1)C1CC1` (stereo not drawn) [AC2020601-0437, 4-(4-((4-(cyclopropanecarboxamido)benzyl)oxy)phenyl)-N-((1-phenylpyrrolidin-3-yl)methyl)-1H-imidazole-1-carboxamide] returned an IC50 of under 300 nM.
Compound `O=C(NCCCOc1ccccc1)n1cnc(-c2ccc(OCc3ccc(NS(=O)(=O)C(F)F)cc3)cc2)c1` [AC2020601-0363, 4-(4-((4-(difluoromethylsulfonamido)benzyl)oxy)phenyl)-N-(3-phenoxypropyl)-1H-imidazole-1-carboxamide] had an IC50 of under 300 nM.
Turning to `Cc1nnc(COc2ccc(-c3cn(C(=O)NCC4CCN(c5ccccc5)C4)cn3)cc2)o1` (stereo not drawn) [AC2020601-0491, 4-(4-((5-methyl-1,3,4-oxadiazol-2-yl)methoxy)phenyl)-N-((1-phenylpyrrolidin-3-yl)methyl)-1H-imidazole-1-carboxamide], the IC50 is under 300 nM.
For `O=C(Nc1ccc(COc2ccc(-c3cn(C(=O)NCCCOc4ccccc4)cn3)cc2)cc1)C1CC1` [AC2020601-0328, 4-(4-((4-(cyclopropanecarboxamido)benzyl)oxy)phenyl)-N-(3-phenoxypropyl)-1H-imidazole-1-carboxamide] the value was under 300 nM; for `CS(=O)(=O)c1ccc(COc2ccc(-c3cn(C(=O)NCC4CCN(c5ccccc5)C4)cn3)cc2)nc1` (stereo not drawn) [AC2020601-0445, 4-(4-((5-(methylsulfonyl)pyridin-2-yl)methoxy)phenyl)-N-((1-phenylpyrrolidin-3-yl)methyl)-1H-imidazole-1-carboxamide], under 300 nM.
`CS(=O)(=O)c1ccc(COc2ccccc2-c2cn(C(=O)NCC3CN(c4ccccc4)C3)cn2)cc1` [AC2020601-0456, 4-(2-(4-(methylsulfonyl)benzyloxy)phenyl)-N-((1-phenylazetidin-3-yl)methyl)-1H-imidazole-1-carboxamide] displayed an IC50 of under 300 nM.
The compound `CS(=O)(=O)Nc1ccc(COc2ccc(-c3cn(C(=O)NCC4CN(c5ccccc5)C4)cn3)cc2)cc1` [AC2020601-0380, 4-(4-((4-(methylsulfonamido)benzyl)oxy)phenyl)-N-((1-phenylazetidin-3-yl)methyl)-1H-imidazole-1-carboxamide] had a 50% inhibitory concentration (IC50) of over 3000 nM.
`O=C(NCCCCc1ccccc1)n1cnc(-c2ccc(OCc3cccc(N4CCOCC4)c3)cc2)c1` [AC2020601-0245, 4-(4-((3-morpholinobenzyl)oxy)phenyl)-N-(4-phenylbutyl)-1H-imidazole-1-carboxamide] returned an IC50 of under 300 nM.
`NS(=O)(=O)c1ccc(COc2ccc(-c3cn(C(=O)NCCCCc4ccccc4)cn3)cc2)cc1` [AC2020601-0284, N-(4-phenylbutyl)-4-(4-((4-sulfamoylbenzyl)oxy)phenyl)-1H-imidazole-1-carboxamide] showed an IC50 of under 300 nM.
For `O=C(NCC1CN(c2ccccc2)C1)n1cnc(-c2ccc(OCc3cccc(N4CCOCC4)c3)cc2)c1` [AC2020601-0382, 4-(4-(3-morpholinobenzyloxy)phenyl)-N-((1-phenylazetidin-3-yl)methyl)-1H-imidazole-1-carboxamide], the IC50 is under 300 nM.
For the compound `Cc1ncc(N2CCC(CNC(=O)n3cnc(-c4ccc(OCc5ccc(S(C)(=O)=O)cc5)cc4)c3)C2)s1` (stereo not drawn) [AC2020601-0499, 4-(4-((4-(methylsulfonyl)benzyl)oxy)phenyl)-N-((1-(2-methylthiazol-5-yl)pyrrolidin-3-yl)methyl)-1H-imidazole-1-carboxamide], the IC50 is under 300 nM.
`CCS(=O)(=O)c1ccc(COc2ccc(-c3cn(C(=O)NCC4CCN(c5ccccc5)C4)cn3)cc2)c(C#N)c1` (stereo not drawn) [AC2020601-0430, 4-(4-((2-cyano-4-(ethylsulfonyl)benzyl)oxy)phenyl)-N-((1-phenylpyrrolidin-3-yl)methyl)-1H-imidazole-1-carboxamide] came in with an IC50 of under 300 nM.
Compound `CS(=N)(=O)c1ccc(COc2ccc(-c3cn(C(=O)NCC4CCN(c5ccccc5)C4)cn3)cc2)cc1` (stereo not drawn) [AC2020601-0452, 4-(4-((4-(S-methylsulfonimidoyl)benzyl)oxy)phenyl)-N-((1-phenylpyrrolidin-3-yl)methyl)-1H-imidazole-1-carboxamide] came in with an IC50 of under 300 nM.
As to `Cn1cc(COc2ccc(-c3cn(C(=O)NCC4CCN(c5ccccc5)C4)cn3)cc2)nn1` (stereo not drawn) [AC2020601-0489, 4-(4-((1-methyl-1H-1,2,3-triazol-4-yl)methoxy)phenyl)-N-((1-phenylpyrrolidin-3-yl)methyl)-1H-imidazole-1-carboxamide], the IC50 was under 300 nM.
`CS(=O)(=O)c1ccc(COc2ccc(-c3cn(C(=O)NCC4CC4)cn3)cc2)cc1` [AC2020601-0295, N-(cyclopropylmethyl)-4-(4-((4-(methylsulfonyl)benzyl)oxy)phenyl)-1H-imidazole-1-carboxamide] showed an IC50 of under 300 nM.
Take `CS(=O)(=O)c1ccc(COc2ccc(-c3cn(C(=O)NC[C@@H]4CCN(c5ccccc5)C4)cn3)cc2)cc1` (single isomer, unassigned) [AC2020601-0384a]: the IC50 was under 300 nM.
Consider `CC(C)N1CC(CNC(=O)n2cnc(-c3ccc(OCc4ccc(S(C)(=O)=O)cc4)cc3)c2)C1` [AC2020601-0379, N -((1-isopropylazetidin-3-yl)methyl)-4-(4-((4-(methylsulfonyl)benzyl)oxy)phenyl)-1H-imidazole-1-carboxamide], for which the IC50 was over 3000 nM.
For `CS(=O)(=O)c1ccc(C(CO)Oc2ccc(-c3cn(C(=O)NCC4CCN(c5ccccc5)C4)cn3)cc2)cc1` (stereo not drawn) [AC2020601-0428, 4-(4-(2-hydroxy-1-(4-(methylsulfonyl)phenyl)ethoxy)phenyl)-N-((1-phenylpyrrolidin-3-yl)methyl)-1H-imidazole-1-carboxamide] the value was under 300 nM; for `CNS(=O)(=O)c1ccc(COc2ccc(-c3cn(C(=O)NCCCOc4ccccc4)cn3)cc2)cc1` [AC2020601-0339, 4-(4-((4-(N-methylsulfamoyl)benzyl)oxy)phenyl)-N-(3-phenoxypropyl)-1H-imidazole-1-carboxamide], under 300 nM; for `C[C@H](Oc1ccc(-c2cn(C(=O)NCCCOc3ccccc3)cn2)cc1)c1ccc(S(C)(=O)=O)cc1` (single isomer, unassigned) [AC2020601-0348], under 300 nM.
`CS(=O)(=O)c1ccc(COc2ccc(-c3cn(C(=O)NCC4CCN(c5cccc(C#N)c5)C4)cn3)cc2)cc1` (stereo not drawn) [AC2020601-0494, N-((1-(3-cyanophenyl)pyrrolidin-3-yl)methyl)-4-(4-(4-(methylsulfonyl)benzyloxy)phenyl)-1H-imidazole-1-carboxamide] showed an IC50 of under 300 nM.
For `Cn1nc(C(F)(F)F)cc1COc1ccc(-c2cn(C(=O)NCC3CCN(c4ccccc4)C3)cn2)cc1` (stereo not drawn) [AC2020601-0481, 4-(4-((1-methyl-3-(trifluoromethyl)-1H-pyrazol-5-yl)methoxy)phenyl)-N-((1-phenylpyrrolidin-3-yl)methyl)-1H-imidazole-1-carboxamide], the IC50 was under 300 nM.
For `O=C(Nc1ccc(COc2ccc(-c3cn(C(=O)NCC4CN(c5ccccc5)C4)cn3)cc2)cc1)C1COC1` [AC2020601-0401, 4-(4-((4-(oxetane-3-carboxamido)benzyl)oxy)phenyl)-N-((1-phenylazetidin-3-yl)methyl)-1H-imidazole-1-carboxamide] the value was under 300 nM; for `CS(=O)(=O)Nc1ccc(COc2ccc(-c3cn(C(=O)NCCCCc4ccccc4)cn3)cc2)cc1` [AC2020601-0306, 4-(4-((4-(methylsulfonamido)benzyl)oxy)phenyl)-N-(4-phenylbutyl)-1H-imidazole-1-carboxamide], under 300 nM; for `O=C(NCC1CCN(c2ccccc2)C1)n1cnc(-c2ccc(OC3CCc4cc(F)ccc43)cc2)c1` (stereo not drawn) [AC2020601-0439, 4-(4-((5-fluoro-2,3-dihydro-1H-inden-1-yl)oxy)phenyl)-N-((1-phenylpyrrolidin-3-yl)methyl)-1H-imidazole-1-carboxamide], under 300 nM.
Compound `N#CCS(=O)(=O)c1ccc(COc2ccc(-c3cn(C(=O)NCC4CCN(c5ccccc5)C4)cn3)cc2)cc1` (stereo not drawn) [AC2020601-0507, 4-(4-(4-(cyanomethylsulfonyl)benzyloxy)phenyl)-N-((1-phenylpyrrolidin-3-yl)methyl)-1H-imidazole-1-carboxamide] came in with an IC50 of under 300 nM.
The compound `CS(=O)(=O)c1ccc(CNC(=O)n2cnc(-c3ccc(OCc4ccc(S(C)(=O)=O)cc4)cc3)c2)cc1` [AC2020601-0303, N-(4-(methylsulfonyl)benzyl)-4-(4-((4-(methylsulfonyl)benzyl)oxy)phenyl)-1H-imidazole-1-carboxamide] registered an IC50 of 301 to 3000 nM.
